Experimental data reported in patent publication US20040002441A1, “Recombination modulators and methods for producing and using the same” (priority 2000, published 2004).
Where no end group is shown, it is not given here.

Columns and labels:
Hind III = molecular target: T1, Hind III (Haemophilus influenzae, UniProt P43870); experiment: Restriction enzyme assay on pUC19; assay type: biochemical
T1 construct: purchased New England BioLabs
Procedure: (§1) Restriction enzyme assays. Restriction digests were performed as specified and the products were separated on 0.8% agarose gels electrophoresed at 80-90V in 1× Tris borate EDTA buffer. Gels were photographed, scanned and quantitated using NIH Image v.1.55, as recommended in the instruction manual.

Nde I = experiment: Restriction enzyme assay on pUC19; assay type: biochemical; settings: Nde I (CATATG)
Procedure: as §1

Pst I = molecular target: T2, Pst I (Providencia stuartii, UniProt P00640); experiment: Restriction enzyme assay on pUC19; assay type: biochemical
T2 construct: purchased New England BioLabs
T2 sequence (P00640 1-326): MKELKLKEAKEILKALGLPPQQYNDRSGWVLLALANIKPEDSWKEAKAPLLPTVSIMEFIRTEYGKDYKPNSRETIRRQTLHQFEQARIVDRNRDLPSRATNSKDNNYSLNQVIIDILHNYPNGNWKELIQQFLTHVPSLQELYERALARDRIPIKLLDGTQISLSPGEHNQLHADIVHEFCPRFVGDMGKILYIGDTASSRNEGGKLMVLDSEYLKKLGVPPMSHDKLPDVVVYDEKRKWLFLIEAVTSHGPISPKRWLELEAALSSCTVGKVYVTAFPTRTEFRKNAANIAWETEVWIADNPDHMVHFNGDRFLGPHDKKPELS
Procedure: as §1

[1] = molecular target: restriction enzymes with unique sites in pUC19; experiment: Restriction enzyme assays, all enzymes tested; assay type: biochemical
Procedure: as §1

[2] = molecular target: T3, bacteriophage λ Integrase (Int) (Escherichia phage lambda, UniProt P03700); experiment: Formation of covalent protein-DNA complexes (CPDs) by Int; assay type: biochemical
T3 sequence (P03700 1-356): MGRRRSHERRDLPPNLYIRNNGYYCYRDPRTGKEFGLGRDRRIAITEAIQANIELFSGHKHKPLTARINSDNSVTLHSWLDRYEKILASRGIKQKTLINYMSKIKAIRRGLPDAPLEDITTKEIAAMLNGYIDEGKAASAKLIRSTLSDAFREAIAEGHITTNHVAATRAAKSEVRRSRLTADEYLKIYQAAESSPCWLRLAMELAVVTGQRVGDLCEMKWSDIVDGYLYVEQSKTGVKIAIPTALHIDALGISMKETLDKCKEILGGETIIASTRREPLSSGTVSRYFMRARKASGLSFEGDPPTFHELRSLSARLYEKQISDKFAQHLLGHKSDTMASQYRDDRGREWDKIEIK
Excerpt: Int, like its relative tyrosine recombinases, makes transient covalent protein-DNA complexes (CPDs) during the cleavage stage of the recombination reaction. […] Since these complexes are the product of DNA cleavage by Int prior to strand exchange or ligation, we tested the effect of peptide KWWCRW on their formation. The peptide inhibited accumulation of both attL and attR CPDs by 65-75% (data not shown), supporting our model that KWWCRW blocks recombination by interfering with the cleavage step of the reaction.

vaccinia topoisomerase = molecular target: T4, vaccinia topoisomerase (Vaccinia virus, UniProt P68698); experiment: Gel shift of noncovalent topoisomerase-DNA complex (60-bp duplex with CCCTT site); assay type: binding; settings: 0.72 to 1.8 μM peptide
T4 construct: made in house; host or cells: Escherichia coli BL21 infected with bacteriophage λCE6
Excerpt: To test whether the peptide interferes with the noncovalent association of topoisomerase with the DNA, we assayed the effects of the peptides on the binding of vaccinia topoisomerase to a radiolabeled 60-bp duplex DNA containing a single central CCCTT recognition site. In contrast to the suicide substrate, for which all bound enzymes are trapped in the covalent state, only about 20% of the fully double-stranded DNA molecules that are bound will be linked covalently to the protein (Wittschieben and Shuman, 1997).

[3] = molecular target: bacteriophage λ Integrase (Int) (Escherichia phage lambda, UniProt P03700); experiment: Top strand cleavage of phosphorothiolate-modified attL (attLS); assay type: biochemical; settings: with Int, IHF, Xis and attR
Procedure: FIG. 18 depicts effect of peptide WKHYNY on DNA cleavage. A. Time course of resolution of excision HJs. HJs were isolated, and Int, IHF, and Xis were added in the presence or absence of peptide 52 (100 μM) and stopped at various timepoints (1, 5, 15, 30, 60, and 90 min). Absence of peptide, closed circles; presence of peptide, open squares. B. The extent of strand cleavage of attL. An attL site containing a phosphorothiolate modification at the point of top strand cleavage (attLS) was incubated with Int, IHF, and Xis, in the presence of attR and in the presence or absence of peptide WKHYNY. Absence of peptide, open squares; presence of peptides, closed diamonds.
In contrast, the peptide has little or no effect on the, rate of cleavage of the attL early intermediate under recombination conditions (FIG. 18B). We measured this by using attL substrates containing a bridging phosphorothiolate modification at the locus of top strand cleavage. This modification, developed by Burgin and Nash (1995), replaces a bridging oxygen atom in the DNA backbone with a sulfur atom. Upon cleavage, the covalent Int-DNA intermediate remains trapped because the sulfhydryl generated at the free 5′ end is a much poorer nucleophile of the phosphotyrosyl bond than the normal hydroxyl group (Burgin et al., 1995). […]

| Substance | IC50 (Hind III) [µM] | IC50 (Nde I) [µM] | IC50 (Pst I) [µM] | IC50 [1] [µM] | inhibition of accumulation of attL and attR CPDs [2] | effect on formation of the noncovalent topoisomerase-DNA complex (vaccinia topoisomerase) | effect on first strand cleavage of attLS [3] |
| --- | --- | --- | --- | --- | --- | --- | --- |
| KWWCRW-NH2 [Peptide 59, KWWCRW] | 48 | 37 | 44 | ~40 | 65-75% | did not inhibit |  |
| WKHYNY-NH2 [Peptide 52, WKHYNY] |  |  |  |  |  |  | no influence on the kinetics or the amount of cleavage |
